What was measured:
[1] = Induction of anti-CD3 antibodies-stimulated human T cell activation at 1 uM assessed fold increase in CD25 expression measured by ELISA assay; type: functional, T cell line; further: reference of the scale not given here
[2] = Induction of anti-CD3/CD28 antibodies-stimulated human T cell activation at 1 uM assessed fold increase in IL-2 secretion measured by ELISA assay; type: functional, T cell line
[3] = biological target: E3 ubiquitin-protein ligase CBL-B (Homo sapiens, UniProt Q13191); experiment: Inhibition of N-terminal Avi-tagged human CBL-B (36 to 427 residues) incubated with 60 nM Src kinase for 1.5 hrs followed by incubation with fluorescently labeled UbcH5B-Ub for 1 hr and measured by TR-FRET assay; type: single protein
Chain of E3 ubiquitin-protein ligase CBL-B (Q13191 whole entry, the tested form may be a part): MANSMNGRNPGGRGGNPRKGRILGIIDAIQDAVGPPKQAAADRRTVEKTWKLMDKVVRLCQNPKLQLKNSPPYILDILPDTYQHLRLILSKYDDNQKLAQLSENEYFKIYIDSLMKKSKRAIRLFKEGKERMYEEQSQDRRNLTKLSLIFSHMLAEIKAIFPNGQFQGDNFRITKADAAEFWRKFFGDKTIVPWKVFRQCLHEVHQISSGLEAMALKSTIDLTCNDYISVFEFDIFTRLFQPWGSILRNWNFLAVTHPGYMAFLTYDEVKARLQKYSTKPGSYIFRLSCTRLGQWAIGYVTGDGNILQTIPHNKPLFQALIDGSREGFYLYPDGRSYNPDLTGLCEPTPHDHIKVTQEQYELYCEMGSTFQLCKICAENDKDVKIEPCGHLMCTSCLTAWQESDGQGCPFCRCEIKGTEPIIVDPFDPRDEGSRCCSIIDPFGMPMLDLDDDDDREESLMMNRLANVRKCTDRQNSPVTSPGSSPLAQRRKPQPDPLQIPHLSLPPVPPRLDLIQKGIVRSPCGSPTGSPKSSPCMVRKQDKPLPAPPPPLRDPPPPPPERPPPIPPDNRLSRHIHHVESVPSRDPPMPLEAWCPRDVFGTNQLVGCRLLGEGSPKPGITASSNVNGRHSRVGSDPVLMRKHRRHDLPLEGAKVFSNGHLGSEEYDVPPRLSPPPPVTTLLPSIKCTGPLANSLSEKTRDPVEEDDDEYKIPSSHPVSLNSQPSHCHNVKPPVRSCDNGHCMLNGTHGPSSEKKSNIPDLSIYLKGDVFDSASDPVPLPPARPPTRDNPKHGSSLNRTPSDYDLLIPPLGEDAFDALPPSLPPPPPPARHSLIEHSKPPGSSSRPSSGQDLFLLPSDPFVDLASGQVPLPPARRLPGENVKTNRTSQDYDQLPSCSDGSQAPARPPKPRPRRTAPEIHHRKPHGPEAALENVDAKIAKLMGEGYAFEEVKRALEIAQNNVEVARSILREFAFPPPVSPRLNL

[4] = Induction of anti-CD3/CD28 antibodies-stimulated human T cell activation at 1 uM assessed fold increase in CD25 expression measured by ELISA assay; type: functional, T cell line
[5] = Induction of anti-CD3/CD28 antibodies-stimulated human T cell activation at 0.3 uM assessed fold increase in CD25 expression measured by ELISA assay; type: functional, T cell line
[6] = Induction of anti-CD3 antibodies-stimulated human T cell activation at 1 uM assessed fold increase in IL-2 secretion measured by ELISA assay; type: functional, T cell line; further: reference of the scale not given here
[7] = Induction of anti-CD3/CD28 antibodies-stimulated human T cell activation at 0.3 uM assessed fold increase in IL-2 secretion measured by ELISA assay; type: functional, T cell line

SMILES | fold change (FC) [1] | fold change (FC) [2] | IC50 [3] | fold change (FC) [4] | fold change (FC) [5] | fold change (FC) [6] | fold change (FC) [7]
CCOc1cc(N2Cc3c(cc([C@H](C)N4CC[C@H](F)C4)cc3C(F)(F)F)C2=O)cc(C2(Cc3nncn3C)COC2)c1 | >=1.001 | >=7.5 | < 100 nM | 1.51 | 1.31 | 0.151 | 2.51
Cn1cnnc1CC1(c2cccc(N3Cc4c(cc(CN5Cc6ccc(F)cc6C5)cc4C(F)(F)F)C3=O)c2)COC1 | >=1.001 | >=7.5 | < 100 nM | 1.31 | 1.31 | >=0.201 | 5
CC(c1cc2c(c(C3CC3)n1)CN(c1cccc(C3(Cc4nncn4C)COC3)c1)C2=O)N1CCCCC1 (centres undefined) | 0.601 | >=7.5 | < 100 nM | >=1.76 | >=1.76 | >=0.201 | 5
Cn1cnnc1CC1(c2cccc(N3Cc4c(cc(N5CC(C(F)F)C5)cc4C(F)(F)F)C3=O)c2)COC1 | 0.801 | 5 | < 100 nM | 1.01 | 1.01 | 0.051 | 2.51
Cn1cnnc1CC1(c2cccc(NC(=O)c3cc(OC(F)F)cc(C4CC4)n3)c2)COC1 | >=1.001 | >=7.5 | < 100 nM | 1.01 | 1.01 | >=0.201 | 5
CCOc1cc(NC(=O)c2cc(C)nc(C3CC3)n2)cc(C2(Cc3nncn3C)COC2)c1 | 0.801 | 5 | < 100 nM | 1.01 | 1.01 | 0.051 | 2.51
Cn1cnnc1CC1(c2cccc(N3Cc4c(cc(CN5CCC6(CC5)CC6)cc4C(F)(F)F)C3=O)c2)COC1 | >=1.001 | >=7.5 | < 100 nM | 1.51 | 1.51 | >=0.201 | >=7.5
C[C@@H]1CN(C)CCN1c1cc2c(c(C(F)(F)F)c1)CN(c1cccc(C3(Cc4nncn4C)COC3)c1)C2=O | >=1.001 | >=7.5 | < 100 nM | 1.31 | 1.01 | 0.151 | 2.51
COC1CCCN(Cc2cc3c(c(C(F)(F)F)c2)CN(c2cccc(C4(Cc5nncn5C)COC4)c2)C3=O)C1 (centres undefined) | >=1.001 | >=7.5 | < 100 nM | 1.51 | 1.31 | >=0.201 | >=7.5
Cn1cnnc1CC1(c2cccc(N3Cc4c(cc(CN5CC[C@H](F)C5)nc4C4CC4)C3=O)c2)COC1 | 0.801 | 5 | < 100 nM | 1.01 | 1.01 | 0.051 | 2.51
Cc1cc(C(=O)Nc2cccc(C3(C(F)(F)c4nncn4C)COC3)c2)nc(C2CC2)n1 | 0.801 | 5 | < 100 nM | 1.31 | 1.01 | 0.101 | 2.51
Cn1cnnc1CC1(c2cccc(N3Cc4c(cc(CN5CCC(C)(F)C5)cc4C(F)(F)F)C3=O)c2)COC1 (centres undefined) | >=1.001 | >=7.5 | < 100 nM | 1.31 | 1.31 | >=0.201 | >=7.5
COC1CCN(Cc2cc3c(c(C(F)(F)F)c2)CN(c2cccc(C4(Cc5nncn5C)COC4)c2)C3=O)CC1 | >=1.001 | >=7.5 | < 100 nM | 1.51 | 1.31 | >=0.201 | >=7.5
CN1CC2CC(C1)N2c1cc2c(c(C(F)(F)F)c1)CN(c1cccc([C@@](C)(F)C(F)(F)c3nncn3C)c1)C2=O | 0.801 | 2.51 | < 100 nM | 1.01 | 1.01 | 0.051 | 1.01
Cn1cnnc1[C@H](F)C1(c2cccc(N3Cc4c(cc(CN5CCCC5)cc4C(F)(F)F)C3=O)c2)COC1 | >=1.001 | >=7.5 | < 100 nM | 1.31 | 1.31 | >=0.201 | >=7.5
Cn1cnnc1CC1(c2cccc(N3Cc4c(cc(C5CCOC5)cc4C(F)(F)F)C3=O)c2)COC1 (centres undefined) | 0.801 | 5 | < 100 nM | 1.01 | 1.01 | 0.101 | 2.51
Cn1cnnc1[C@H](F)C1(c2cccc(N3Cc4c(cc(CN5CCCCC5)cc4C(F)(F)F)C3=O)c2)COC1 | >=1.001 | >=7.5 | < 100 nM | 1.01 | 1.01 | >=0.201 | >=7.5
Cn1cnnc1CC1(c2cccc(N3Cc4c(cc(N5CC(C(F)F)C5)nc4C4CC4)C3=O)c2)COC1 | 0.801 | 5 | < 100 nM | 1.01 | 1.01 | 0.101 | 2.51
CC1CCN(Cc2cc3c(c(C(F)(F)F)c2)CN(c2cccc(C4(Cc5nncn5C)COC4)c2)C3=O)CC1(F)F (centres undefined) | >=1.001 | >=7.5 | < 100 nM | 1.31 | 1.31 | >=0.201 | >=7.5
COc1cccc2c1CN(Cc1cc3c(c(C(F)(F)F)c1)CN(c1cccc(C4(Cc5nncn5C)COC4)c1)C3=O)C2 | >=1.001 | >=7.5 | < 100 nM | 1.51 | 1.51 | >=0.201 | 5
Cc1conc1CC1(c2cccc(NC(=O)c3cc(CN4CCC5(CC5)C4)cc(C4CC4)n3)c2)COC1 | >=1.001 | >=7.5 | < 100 nM | 1.31 | 1.31 | >=0.201 | >=7.5
CC[C@H](c1cc2c(c(C(F)(F)F)c1)CN(c1cccc(C3(Cc4nncn4C)COC3)c1)C2=O)N1CC[C@H](F)C1 | >=1.001 | >=7.5 | < 100 nM | 1.51 | 1.51 | >=0.201 | >=7.5
